Test results: patent publication US8133998B2, “Bicyclic pyrimidine derivatives as calcium channel blockers” (Zalicus Pharmaceuticals, Ltd., priority 2007, dated 2012)

Target: T1, human α1G T-type channels (Homo sapiens, UniProt O43497)
T1 construct: expressed in transfected cells; host or cells: HEK 293
Assay: T-type calcium channel block, whole cell patch clamp in HEK cells
Assay type: cell-based
Conditions: HEK cells stably expressing human α1G; measured at 1 μM drug; mainly non-inactivated protocol
Procedure: (§1) T-type calcium channel blocking activity was assayed in human embryonic kidney cells, HEK 293, stably transfected with the T-type calcium channel subunits. Briefly, cells were cultured in Dulbecco's modified eagle medium (DMEM) supplemented with 10% fetal bovine serum, 200 U/ml penicillin and 0.2 mg/ml streptomycin at 37° C. with 5% CO2. At 85% confluency cells were split with 0.25% trypsin/1 mM EDTA and plated at 10% confluency on glass coverslips. At 12 hours the medium was replaced and the cells stably transfected using a standard calcium phosphate protocol and the appropriate calcium channel cDNA's. Fresh DMEM was supplied and the cells transferred to 28° C./5% CO2. Cells were incubated for 1 to 2 days prior to whole cell recording.
(§2) Standard patch-clamp techniques were employed to identify blockers of T-type currents. Briefly, previously described HEK cell lines stably expressing human α1G, α1H and α1I T-type channels were used for all the recordings (passage #: 4-20, 37° C., 5% CO2). Whole cell patch clamp experiments were performed using an Axopatch 200B amplifier (Axon Instruments, Burlingame, Calif.) linked to a personal computer equipped with pCLAMP software. Data were analyzed using Clampfit (Axon Instruments) and SigmaPlot 4.0 (Jandel Scientific). To obtain T-type currents, plastic dishes containing semi-confluent cells were positioned on the stage of a ZEISS AXIOVERT S100 microscope after replacing the culture medium with external solution (see below). Whole-cell patches were obtained using pipettes (borosilicate glass with filament, O.D.: 1.5 mm, I.D.: 0.86 mm, 10 cm length), fabricated on a SUTTER P-97 puller with resistance values of ˜5 MΩ (see below for internal solution).
(§3) In the non-inactivating protocol, the holding potential is set at −110 mV and with a pre-pulse at −100 mV for 1 second prior to the test pulse at −40 mV for 50 ms. In the inactivation protocol, the pre-pulse is at approximately −85 mV for 1 second, which inactivates about 15% of the T-type channels.
(§4) Test compounds were dissolved in external solution, 0.1-0.01% DMSO. After ˜10 min rest, they were applied by gravity close to the cell using a WPI microfil tubing. The “non-inactivated” pre-pulse was used to examine the resting block of a compound. The “inactivated” protocol was employed to study voltage-dependent block. However, the initial data shown below were mainly obtained using the non-inactivated protocol only. Kd values are shown for various compounds of the invention in Table 4 measured at 1 μM for the drug of interest except for compound 18 which was measured at 200 nM.

T1 sequence (O43497 whole entry): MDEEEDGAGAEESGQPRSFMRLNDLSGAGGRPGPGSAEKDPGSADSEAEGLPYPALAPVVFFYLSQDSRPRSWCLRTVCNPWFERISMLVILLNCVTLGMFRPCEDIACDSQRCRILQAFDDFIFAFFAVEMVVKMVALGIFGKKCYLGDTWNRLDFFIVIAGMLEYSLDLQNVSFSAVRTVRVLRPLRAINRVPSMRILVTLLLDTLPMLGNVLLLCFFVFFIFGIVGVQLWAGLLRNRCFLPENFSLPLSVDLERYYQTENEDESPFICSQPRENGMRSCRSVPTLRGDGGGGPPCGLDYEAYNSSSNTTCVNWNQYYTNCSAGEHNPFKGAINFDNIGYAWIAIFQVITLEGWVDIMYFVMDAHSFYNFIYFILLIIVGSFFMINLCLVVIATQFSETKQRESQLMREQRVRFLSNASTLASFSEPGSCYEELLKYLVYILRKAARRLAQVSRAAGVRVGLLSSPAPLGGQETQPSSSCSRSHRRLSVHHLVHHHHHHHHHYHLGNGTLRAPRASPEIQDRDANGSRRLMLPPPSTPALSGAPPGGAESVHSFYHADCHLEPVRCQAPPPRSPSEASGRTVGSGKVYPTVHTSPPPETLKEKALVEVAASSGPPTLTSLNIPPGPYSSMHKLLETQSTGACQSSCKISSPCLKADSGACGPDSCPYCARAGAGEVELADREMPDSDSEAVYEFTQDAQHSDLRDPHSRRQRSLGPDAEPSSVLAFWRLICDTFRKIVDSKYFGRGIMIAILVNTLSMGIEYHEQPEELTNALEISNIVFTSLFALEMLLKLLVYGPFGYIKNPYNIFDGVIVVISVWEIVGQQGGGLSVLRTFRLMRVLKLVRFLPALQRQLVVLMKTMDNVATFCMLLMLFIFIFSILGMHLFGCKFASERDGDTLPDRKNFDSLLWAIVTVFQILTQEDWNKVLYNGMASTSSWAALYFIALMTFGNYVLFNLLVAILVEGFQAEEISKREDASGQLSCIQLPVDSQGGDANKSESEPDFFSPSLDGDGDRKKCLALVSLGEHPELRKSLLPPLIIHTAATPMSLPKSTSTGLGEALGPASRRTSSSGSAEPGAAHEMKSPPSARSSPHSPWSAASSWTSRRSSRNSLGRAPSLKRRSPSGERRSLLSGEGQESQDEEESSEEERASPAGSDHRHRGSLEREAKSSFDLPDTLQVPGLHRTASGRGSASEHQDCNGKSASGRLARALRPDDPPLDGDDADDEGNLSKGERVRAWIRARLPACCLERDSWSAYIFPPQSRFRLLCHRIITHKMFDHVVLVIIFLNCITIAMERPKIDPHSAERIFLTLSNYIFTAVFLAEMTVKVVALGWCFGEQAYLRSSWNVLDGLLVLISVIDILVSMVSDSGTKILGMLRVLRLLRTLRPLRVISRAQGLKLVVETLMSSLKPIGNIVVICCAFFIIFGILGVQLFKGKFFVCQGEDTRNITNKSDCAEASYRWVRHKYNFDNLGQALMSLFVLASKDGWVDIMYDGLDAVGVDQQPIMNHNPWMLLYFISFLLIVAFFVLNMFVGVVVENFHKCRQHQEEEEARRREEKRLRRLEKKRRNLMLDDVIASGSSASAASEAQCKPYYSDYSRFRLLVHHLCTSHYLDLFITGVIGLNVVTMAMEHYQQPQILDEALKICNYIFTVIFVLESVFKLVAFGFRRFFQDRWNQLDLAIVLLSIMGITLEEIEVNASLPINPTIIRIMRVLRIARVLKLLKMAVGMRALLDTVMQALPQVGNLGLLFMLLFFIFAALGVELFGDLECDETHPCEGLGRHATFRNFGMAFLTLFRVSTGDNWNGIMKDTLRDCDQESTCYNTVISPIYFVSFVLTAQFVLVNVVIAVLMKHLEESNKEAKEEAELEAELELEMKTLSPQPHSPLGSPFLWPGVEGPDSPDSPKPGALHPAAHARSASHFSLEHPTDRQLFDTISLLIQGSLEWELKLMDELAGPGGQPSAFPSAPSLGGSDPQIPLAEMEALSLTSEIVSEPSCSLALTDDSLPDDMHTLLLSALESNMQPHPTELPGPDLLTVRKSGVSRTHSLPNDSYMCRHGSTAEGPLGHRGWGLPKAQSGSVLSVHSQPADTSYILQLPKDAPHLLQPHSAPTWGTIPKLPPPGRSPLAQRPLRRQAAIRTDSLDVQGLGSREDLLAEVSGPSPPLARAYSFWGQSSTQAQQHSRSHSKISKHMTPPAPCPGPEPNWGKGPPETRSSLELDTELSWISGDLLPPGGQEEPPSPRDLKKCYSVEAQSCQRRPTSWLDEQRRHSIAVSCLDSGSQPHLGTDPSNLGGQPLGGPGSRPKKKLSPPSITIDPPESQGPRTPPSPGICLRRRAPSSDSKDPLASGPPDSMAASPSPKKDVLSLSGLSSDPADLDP

Kd | SMILES
2440 nM | CCN(CC)C(=O)Cn1cnc2sc(C(=O)N3CCN(c4cccc(Cl)c4)CC3)c(C)c2c1=O [Compound 1, 2-(6-(4-(3-chlorophenyl)piperazine-1-carbonyl)-5-methyl-4-oxothieno[2,3-d]pyrimidin-3(4H)-yl)-N,N-diethylacetamide]
4120 nM | CCN(CC)C(=O)Cn1cnc2sc(C(=O)N3CCN(c4ccccc4Cl)CC3)c(C)c2c1=O [Compound 4, 2-(6-(4-(2-chlorophenyl)piperazine-1-carbonyl)-5-methyl-4-oxothieno[2,3-d]pyrimidin-3(4H)-yl)-N,N-diethylacetamide]
1230 nM | CCN(CC)C(=O)Cn1cnc2sc(C(=O)N3CCN(c4ccc(Cl)cc4)CC3)c(C)c2c1=O [Compound 5, 2-(6-(4-(4-chlorophenyl)piperazine-1-carbonyl)-5-methyl-4-oxothieno[2,3-d]pyrimidin-3(4H)-yl)-N,N-diethylacetamide]
3730 nM | CCN(CC)C(=O)Cn1cnc2sc(C(=O)N3CCN(c4ccccc4C(F)(F)F)CC3)c(C)c2c1=O [Compound 9, N,N-diethyl-2-(5-methyl-4-oxo-6-(4-(2-(trifluoromethyl)phenyl)piperazine-1-carbonyl)thieno[2,3-d]pyrimidin-3(4H)-yl)acetamide]
1840 nM | Cc1c(C(=O)N2CCC(C(F)(F)F)CC2)sc2ncn(CC(=O)Nc3cccc(C(F)(F)F)c3)c(=O)c12 [Compound 63]
2800 nM | Cc1c(C(N)=O)sc2ncn(CC(=O)Nc3cc(C(F)(F)F)cc(C(F)(F)F)c3)c(=O)c12 [Compound 67, 3-(2-(3,5-bis(trifluoromethyl)phenylamino)-2-oxoethyl)-5-methyl-4-oxo-3,4-dihydrothieno[2,3-d]pyrimidine-6-carboxamide]
400 nM | Cc1c(C(=O)NC(C)(C)C)sc2ncn(CC(=O)Nc3cc(C(F)(F)F)cc(C(F)(F)F)c3)c(=O)c12 [Compound 68, 3-(2-(3,5-bis(trifluoromethyl)phenylamino)-2-oxoethyl)-N-tert-butyl-5-methyl-4-oxo-3,4-dihydrothieno[2,3-d]pyrimidine-6-carboxamide]
5310 nM | Cc1c(C(=O)N2CCCC2)sc2ncn(CC(=O)Nc3cc(C(F)(F)F)cc(C(F)(F)F)c3)c(=O)c12 [Compound 70, N-(3,5-bis(trifluoromethyl)phenyl)-2-(5-methyl-4-oxo-6-(pyrrolidine-1-carbonyl)thieno[2,3-d]pyrimidin-3(4H)-yl)acetamide]
> 74300 nM | Cc1c(C(=O)N2CC[C@H](F)C2)sc2ncn(CC(=O)Nc3cc(C(F)(F)F)cc(C(F)(F)F)c3)c(=O)c12 [Compound 71, (S)-N-(3,5-bis(trifluoromethyl)phenyl)-2-(5-methyl-4-oxo-6-(3-fluoropyrrolidine-1-carbonyl)thieno[2,3-d]pyrimidin-3(4H)-yl)acetamide]
2700 nM | Cc1c(C(=O)N2CCN(c3cc(C(F)(F)F)cc(C(F)(F)F)c3)CC2)sc2ncn(CCN3CCCC3=O)c(=O)c12 [Compound 93, 6-(4-(3,5-bis(trifluoromethyl)phenyl)piperazine-1-carbonyl)-5-methyl-3-(2-(2-oxopyrrolidin-1-yl)ethyl)thieno[2,3-d]pyrimidin-4(3H)-one]
20300 nM | Cc1c(C(=O)N2CCN(c3ccc(Cl)cc3)CC2)sc2ncn(CCN3CCCC3=O)c(=O)c12 [Compound 94, 6-(4-(4-chlorophenyl)piperazine-1-carbonyl)-5-methyl-3-(2-(2-oxopyrrolidin-1-yl)ethyl)thieno[2,3-d]pyrimidin-4(3H)-one]
2660 nM | Cc1c(C(=O)N2CCN(c3ccccc3F)CC2)sc2ncn(CCN3CCCC3=O)c(=O)c12 [Compound 95, 6-(4-(2-fluorophenyl)piperazine-1-carbonyl)-5-methyl-3-(2-(2-oxopyrrolidin-1-yl)ethyl)thieno[2,3-d]pyrimidin-4(3H)-one]
4280 nM | O=C(Cn1cnc2ccc(C(=O)N3CCN(c4cccc(Cl)c4)CC3)cc2c1=O)N1CCCC1 [Compound 115, 6-(4-(3-chlorophenyl)piperazine-1-carbonyl)-3-(2-oxo-2-(pyrrolidin-1-yl)ethyl) quinazolin-4(3H)-one]
3600 nM | CCN(CC(F)(F)F)C(=O)Cn1cnc2sc(C(=O)N3CCN(c4ccccc4F)CC3)c(C)c2c1=O [Compound 128, N-ethyl-2-(6-(4-(2-fluoro-phenyl)piperazine-1-carbonyl)-5-methyl-4-oxothieno[2,3-d]pyrimidin-3(4H)-yl)-N-(2,2,2-trifluoroethyl)acetamide]
1560 nM | Cc1c(C(=O)N2CCN(c3cccc(Cl)c3)CC2)sc2ncn(CC(=O)N3CCCC3)c(=O)c12 [Compound 136, 6-(4-(3-chloro-phenyl)piperazine-1-carbonyl)-5-methyl-3-(2-oxo-2-(pyrrolidin-1-yl)ethyl)thieno[2,3-d]pyrimidin-4(3H)-one]

Target: T2, human α1H T-type channels (Homo sapiens, UniProt O95180)
T2 construct: expressed in transfected cells; host or cells: HEK 293
Assay: as above
Assay type: cell-based
Conditions: HEK cells stably expressing human α1H; measured at 1 μM drug; mainly non-inactivated protocol
Procedure: as §1, §2, §3, §4

T2 sequence (O95180 whole entry): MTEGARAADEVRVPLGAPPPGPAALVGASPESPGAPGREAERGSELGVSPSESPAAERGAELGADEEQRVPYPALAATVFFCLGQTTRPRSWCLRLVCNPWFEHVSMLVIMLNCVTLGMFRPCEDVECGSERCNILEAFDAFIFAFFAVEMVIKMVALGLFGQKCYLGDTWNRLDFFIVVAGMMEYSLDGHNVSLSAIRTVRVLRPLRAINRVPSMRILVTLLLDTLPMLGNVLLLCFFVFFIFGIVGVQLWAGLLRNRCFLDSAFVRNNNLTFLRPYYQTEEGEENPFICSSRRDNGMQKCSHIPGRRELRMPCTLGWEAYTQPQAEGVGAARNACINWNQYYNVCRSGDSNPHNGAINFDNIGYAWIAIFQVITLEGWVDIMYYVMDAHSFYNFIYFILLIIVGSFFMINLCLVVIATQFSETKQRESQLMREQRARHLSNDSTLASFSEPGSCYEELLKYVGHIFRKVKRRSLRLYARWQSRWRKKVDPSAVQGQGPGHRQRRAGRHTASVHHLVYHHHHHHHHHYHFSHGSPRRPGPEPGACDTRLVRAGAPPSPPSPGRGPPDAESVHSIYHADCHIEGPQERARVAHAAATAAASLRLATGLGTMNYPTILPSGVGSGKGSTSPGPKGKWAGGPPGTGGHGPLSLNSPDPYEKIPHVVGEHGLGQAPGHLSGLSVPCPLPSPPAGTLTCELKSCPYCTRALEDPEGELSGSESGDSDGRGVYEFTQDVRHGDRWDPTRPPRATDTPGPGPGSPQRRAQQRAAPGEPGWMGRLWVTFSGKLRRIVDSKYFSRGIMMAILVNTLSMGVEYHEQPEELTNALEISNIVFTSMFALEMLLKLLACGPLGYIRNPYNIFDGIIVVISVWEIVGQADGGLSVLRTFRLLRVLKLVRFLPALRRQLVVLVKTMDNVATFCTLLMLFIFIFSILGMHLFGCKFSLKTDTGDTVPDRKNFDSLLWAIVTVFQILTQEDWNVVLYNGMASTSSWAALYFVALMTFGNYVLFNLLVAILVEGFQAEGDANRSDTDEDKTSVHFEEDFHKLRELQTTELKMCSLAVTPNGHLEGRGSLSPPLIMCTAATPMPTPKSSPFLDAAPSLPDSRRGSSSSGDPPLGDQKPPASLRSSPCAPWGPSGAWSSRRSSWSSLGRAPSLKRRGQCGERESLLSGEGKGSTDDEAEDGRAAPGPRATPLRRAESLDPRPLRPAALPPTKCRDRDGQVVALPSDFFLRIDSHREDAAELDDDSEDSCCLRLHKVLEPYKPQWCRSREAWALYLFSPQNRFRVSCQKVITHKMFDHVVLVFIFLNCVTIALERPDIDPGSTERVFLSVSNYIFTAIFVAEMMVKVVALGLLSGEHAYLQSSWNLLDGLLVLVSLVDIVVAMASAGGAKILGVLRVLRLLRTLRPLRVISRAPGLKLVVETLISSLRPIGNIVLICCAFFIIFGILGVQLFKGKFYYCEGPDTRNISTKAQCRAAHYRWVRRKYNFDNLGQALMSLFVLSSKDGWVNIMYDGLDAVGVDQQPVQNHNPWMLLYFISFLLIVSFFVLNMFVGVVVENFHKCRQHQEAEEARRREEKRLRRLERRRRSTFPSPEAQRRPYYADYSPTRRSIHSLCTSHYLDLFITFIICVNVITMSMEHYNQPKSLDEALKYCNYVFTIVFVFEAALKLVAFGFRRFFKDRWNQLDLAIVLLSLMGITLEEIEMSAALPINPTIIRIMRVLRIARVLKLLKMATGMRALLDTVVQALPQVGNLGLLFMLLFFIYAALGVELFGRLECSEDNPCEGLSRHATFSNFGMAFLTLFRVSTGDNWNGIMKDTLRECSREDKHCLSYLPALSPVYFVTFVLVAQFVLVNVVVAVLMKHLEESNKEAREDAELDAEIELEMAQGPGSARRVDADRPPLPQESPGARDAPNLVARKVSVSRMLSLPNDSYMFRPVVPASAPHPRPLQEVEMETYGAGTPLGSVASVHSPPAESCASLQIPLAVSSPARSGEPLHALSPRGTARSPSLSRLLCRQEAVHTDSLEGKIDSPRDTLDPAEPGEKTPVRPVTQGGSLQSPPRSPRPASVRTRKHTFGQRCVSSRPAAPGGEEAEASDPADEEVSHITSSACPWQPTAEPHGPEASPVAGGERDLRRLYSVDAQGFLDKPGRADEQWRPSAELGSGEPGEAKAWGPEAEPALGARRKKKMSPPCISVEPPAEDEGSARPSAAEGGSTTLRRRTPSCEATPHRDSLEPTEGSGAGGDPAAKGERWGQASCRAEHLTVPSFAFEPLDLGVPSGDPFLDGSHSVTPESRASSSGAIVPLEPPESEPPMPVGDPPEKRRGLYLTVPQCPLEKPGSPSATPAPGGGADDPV

Kd | SMILES
890 nM | CCN(CC)C(=O)Cn1cnc2sc(C(=O)N3CCN(c4cccc(Cl)c4)CC3)c(C)c2c1=O [Compound 1, 2-(6-(4-(3-chlorophenyl)piperazine-1-carbonyl)-5-methyl-4-oxothieno[2,3-d]pyrimidin-3(4H)-yl)-N,N-diethylacetamide]
620 nM | CCN(CC)C(=O)Cn1cnc2sc(C(=O)N3CCN(c4ccc(Cl)cc4)CC3)c(C)c2c1=O [Compound 5, 2-(6-(4-(4-chlorophenyl)piperazine-1-carbonyl)-5-methyl-4-oxothieno[2,3-d]pyrimidin-3(4H)-yl)-N,N-diethylacetamide]
1140 nM | CCN(CC)C(=O)Cn1cnc2sc(C(=O)N3CCN(c4cccc(F)c4)CC3)c(C)c2c1=O [Compound 7, N,N-diethyl-2-(6-(4-(3-fluorophenyl)piperazine-1-carbonyl)-5-methyl-4-oxothieno[2,3-d]pyrimidin-3(4H)-yl)acetamide]
2140 nM | Cc1c(C(=O)N2CCN(c3ccccc3)CC2)sc2ncn(CC(=O)NC(C)(C)C)c(=O)c12 [Compound 13, N-tert-butyl-2-(5-methyl-4-oxo-6-(4-phenylpiperazine-1-carbonyl)thieno[2,3-d]pyrimidin-3(4H)-yl)acetamide]
950 nM | Cc1c(C(=O)N2CCN(c3cccc([N+](=O)[O-])c3)CC2)sc2ncn(CC(=O)NC3CCCCC3)c(=O)c12 [Compound 29, N-cyclohexyl-2-(5-methyl-6-(4-(3-nitrophenyl)piperazine-1-carbonyl)-4-oxothieno[2,3-d]pyrimidin-3(4H)-yl)acetamide]
440 nM | Cc1c(C(=O)N2CCN(c3ccccc3F)CC2)sc2ncn(C(C)C(=O)NC3CCCCC3)c(=O)c12 (stereo not shown) [Compound 34, N-cyclohexyl-2-(6-(4-(2-fluorophenyl)piperazine-1-carbonyl)-5-methyl-4-oxothieno[2,3-d]pyrimidin-3(4H)-yl)propanamide]
830 nM | Cc1c(C(=O)N2CCN(c3ccccc3)CC2)sc2ncn(CC(=O)NC3CCCC3)c(=O)c12 [Compound 41, N-cyclopentyl-2-(5-methyl-4-oxo-6-(4-phenylpiperazine-1-carbonyl)thieno[2,3-d]pyrimidin-3(4H)-yl)acetamide]
520 nM | Cc1c(C(=O)N2CCN(c3ccccc3)CC2)sc2ncn(C(C)C(=O)NC3CCCC3)c(=O)c12 (stereo not shown) [Compound 46, N-cyclopentyl-2-(5-methyl-4-oxo-6-(4-phenylpiperazine-1-carbonyl)thieno[2,3-d]pyrimidin-3(4H)-yl)propanamide]
560 nM | Cc1c(C(=O)N2CCN(c3ccccc3F)CC2)sc2ncn(C(C)C(=O)NC3CCCC3)c(=O)c12 (stereo not shown) [Compound 47, N-cyclopentyl-2-(6-(4-(2-fluorophenyl)piperazine-1-carbonyl)-5-methyl-4-oxothieno[2,3-d]pyrimidin-3(4H)-yl)propanamide]
570 nM | Cc1c(C(=O)N2CCN(c3ccccc3F)CC2)sc2ncn(CC(=O)Nc3ccccc3)c(=O)c12 [Compound 51, 2-(6-(4-(2-fluorophenyl)piperazine-1-carbonyl)-5-methyl-4-oxothieno[2,3-d]pyrimidin-3(4H)-yl)-N-phenylacetamide]
4640 nM | Cc1c(C(=O)N2CCN(c3ccccc3F)CC2)sc2ncn(CC(=O)N3CCC(F)(F)C3)c(=O)c12 [Compound 79, 3-(2-(3,3-difluoropyrrolidin-1-yl)-2-oxoethyl)-6-(4-(2-fluorophenyl)piperazine-1-carbonyl)-5-methylthieno[2,3-d]pyrimidin-4(3H)-one]
2440 nM | Cc1c(C(=O)N2CCN(c3ccc(F)cc3)CC2)sc2ncn(CC(=O)N3CCC(F)(F)C3)c(=O)c12 [Compound 90]
6310 nM | Cc1c(C(=O)N2CCN(c3ccc(F)cc3)CC2)sc2ncn(CC(=O)N3CC[C@H](F)C3)c(=O)c12 [Compound 91, (S)-6-(4-(4-fluorophenyl)-piperazine-1-carbonyl)-3-(2-(3-fluoropyrrolidin-1-yl)-2-oxoethyl)-5-methylthieno[2,3-d]pyrimidin-4(3H)-one]
